From the NIST ThermoML archive (doi:10.1016/j.jct.2011.10.001)
± gives the expanded uncertainty stated by the source.

What was measured:
[1] = for molar entropy: 101.33 kPa, Vacuum adiabatic calorimetry; for vapor or sublimation pressure: Ebulliometric method (Recirculating still)
[2] = Molar enthalpy of transition or fusion; conditions: Crystal; Adiabatic calorimetry

CCCC(=O)OC [methyl butanoate]
[1]
Conditions	Triple point temperature [K]	molar entropy [J/K/mol]	vapor or sublimation pressure [kPa]
5 K, Crystal	–	0.119 ± 0.017	–
10 K, Crystal	–	0.949 ± 0.027	–
15 K, Crystal	–	2.987 ± 0.046	–
20 K, Crystal	–	6.126 ± 0.068	–
25 K, Crystal	–	10.07 ± 0.085	–
30 K, Crystal	–	14.55 ± 0.1	–
35 K, Crystal	–	19.38 ± 0.12	–
40 K, Crystal	–	24.39 ± 0.14	–
45 K, Crystal	–	29.43 ± 0.15	–
50 K, Crystal	–	34.51 ± 0.17	–
55 K, Crystal	–	39.59 ± 0.18	–
60 K, Crystal	–	44.66 ± 0.2	–
65 K, Crystal	–	49.71 ± 0.21	–
70 K, Crystal	–	54.67 ± 0.23	–
75 K, Crystal	–	59.5 ± 0.24	–
80 K, Crystal	–	64.19 ± 0.25	–
85 K, Crystal	–	68.76 ± 0.27	–
90 K, Crystal	–	73.24 ± 0.41	–
95 K, Crystal	–	77.63 ± 0.42	–
100 K, Crystal	–	81.94 ± 0.42	–
110 K, Crystal	–	90.3 ± 0.44	–
120 K, Crystal	–	98.36 ± 0.45	–
130 K, Crystal	–	106.18 ± 0.46	–
140 K, Crystal	–	113.66 ± 0.47	–
150 K, Crystal	–	120.98 ± 0.48	–
160 K, Crystal	–	128.13 ± 0.49	–
170 K, Crystal	–	135.11 ± 0.5	–
180 K, Crystal	–	141.93 ± 0.51	–
190 K, Crystal	–	148.58 ± 0.52	–
190.09 K, Crystal	–	148.66 ± 0.52	–
190.09 K, Liquid	–	208.44 ± 0.61	–
200 K, Liquid	–	217.84 ± 0.63	–
210 K, Liquid	–	226.9 ± 0.64	–
220 K, Liquid	–	235.55 ± 0.65	–
230 K, Liquid	–	243.86 ± 0.67	–
240 K, Liquid	–	251.84 ± 0.68	–
250 K, Liquid	–	259.58 ± 0.69	–
260 K, Liquid	–	267.06 ± 0.7	–
270 K, Liquid	–	274.38 ± 0.71	–
280 K, Liquid	–	281.36 ± 0.72	–
290 K, Liquid	–	288.26 ± 0.73	–
298.15 K, Liquid	–	293.75 ± 0.74	–
300 K, Liquid	–	295 ± 0.74	–
310 K, Liquid	–	301.48 ± 0.75	–
316.24 K, Liquid	–	–	10.8 ± 0.054
320 K, Liquid	–	307.88 ± 0.76	–
321.02 K, Liquid	–	–	13.43 ± 0.054
326.17 K, Liquid	–	–	16.83 ± 0.055
330 K, Liquid	–	314.12 ± 0.77	–
331.33 K, Liquid	–	–	20.88 ± 0.056
335.84 K, Liquid	–	–	25.07 ± 0.057
340 K, Liquid	–	320.27 ± 0.78	–
341.17 K, Liquid	–	–	30.91 ± 0.059
346.14 K, Liquid	–	–	37.26 ± 0.061
350 K, Liquid	–	326.34 ± 0.79	–
351.81 K, Liquid	–	–	45.83 ± 0.064
357.57 K, Liquid	–	–	56.12 ± 0.069
360 K, Liquid	–	332.33 ± 0.8	–
363.05 K, Liquid	–	–	67.49 ± 0.074
368.86 K, Liquid	–	–	81.57 ± 0.08
370 K, Liquid	–	338.15 ± 0.81	–
373.81 K, Liquid	–	–	95.31 ± 0.086
374.54 K, Liquid	–	–	97.44 ± 0.087
375.25 K, Liquid	–	–	99.6 ± 0.089
Crystal, fractional melting	190.1 ± 0.1	–	–

Conditions	Molar enthalpy of transition or fusion [kJ/mol]
[2]	11.4 ± 0.12
